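Growth conditions: 96-well plates. Treatment: test compound, 48 hours, 5 concentrations. Analysis: linear interpolation between bracketing concentrations; unreached endpoints set to highest concentration. GI50: concentration for 50% inhibition of growth.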 Active and inactive are the calls of the source. Rule as the data show it: active = GI50 up to about 1.1 µM and inactive = higher.

Test systems include Malme-3M; KM12; SF-295; K562; COLO 205; SN12C; IGROV-1; LXFL 529; NCI-H460; UO-31; A549; OVCAR-8; UACC-62; 786-0; HOP-62; CCRF-CEM; EKVX; OVCAR-4.
What all share (test): DTP human tumour cell line panel, 48 h

On to `CCN(CC)CC1c2ccccc2C(CNc2ccccc2)N1C` (centres undefined), for which the GI50 (in general, the concentration at which growth is held to half of that of the control) with Malme-3M is > 100 µM (inactive); in the experiment with KM12, > 100 µM (inactive); in the experiment with SF-295 it was > 100 µM (inactive); with K562, 57.8 µM (inactive); in the experiment with COLO 205, > 100 µM (inactive); with SN12C it was > 100 µM (inactive). Further, the GI50 with IGROV-1, in the experiment on LXFL 529, in the experiment on NCI-H460, with UO-31, in the experiment on A549 and with OVCAR-8 was > 100 µM (inactive) in each case. Moreover, the GI50 with UACC-62 was > 100 µM (inactive); in the experiment with 786-0 it was > 100 µM (inactive); in the experiment on HOP-62 it was > 100 µM (inactive); in the experiment with CCRF-CEM it was 83.8 µM (inactive); with EKVX it was > 100 µM (inactive); in the experiment with OVCAR-4, > 100 µM (inactive).
Turning to `COc1cc([C@@H]2c3cc4c(cc3[C@@H](NC(=O)c3ccccc3)C3COC(=O)[C@@H]32)OCO4)cc(OC)c1O` (some centres undefined), the GI50 with Malme-3M was 3.61 µM (inactive); in the experiment on KM12, 7.28 µM (inactive); in the experiment with SF-295 it was 3.51 µM (inactive); in the experiment on K562, 3.27 µM (inactive); with COLO 205, 17.5 µM (inactive); in the experiment with SN12C, 2.55 µM (inactive). Also, the GI50 is 1.65 µM (inactive) in the experiment with IGROV-1; 12.1 µM (inactive) in the experiment on LXFL 529; 0.361 µM (active) with NCI-H460; 4.89 µM (inactive) in the experiment with UO-31; 1.04 µM (active) in the experiment with A549; 8.99 µM (inactive) in the experiment with OVCAR-8. The concentration for 50% growth inhibition (GI50) with UACC-62 was 0.568 µM (active); in the experiment with 786-0, 4.26 µM (inactive); with HOP-62 it was 2.54 µM (inactive); in the experiment with CCRF-CEM it was 1.57 µM (inactive); in the experiment on EKVX it was 21.4 µM (inactive); in the experiment on OVCAR-4 it was 39.7 µM (inactive).
Turning to `Cc1ccc(S(=O)(=O)C(C#N)c2nc3ccccc3nc2N2CCOCC2)cc1` (centres undefined), the GI50 is 27.5 µM (inactive) in the experiment with Malme-3M; 18.3 µM (inactive) in the experiment with KM12; > 10 µM (inactive) in the experiment with K562; 30.3 µM (inactive) with COLO 205; 28.2 µM (inactive) in the experiment on SN12C; 13.6 µM (inactive) with IGROV-1. Moreover, the GI50 was 27.9 µM (inactive) with LXFL 529; 17.9 µM (inactive) in the experiment on NCI-H460; 32.1 µM (inactive) with UO-31; 76 µM (inactive) in the experiment with A549; > 10 µM (inactive) in the experiment with OVCAR-8; 12.4 µM (inactive) in the experiment on UACC-62. Further, the GI50 was 30.2 µM (inactive) with 786-0; 20.5 µM (inactive) in the experiment with HOP-62; 13.9 µM (inactive) in the experiment with CCRF-CEM; > 100 µM (inactive) with EKVX; 20.5 µM (inactive) in the experiment with OVCAR-4.
Take `NNC(=O)C(=O)N/N=C1\CCCC1C(=O)CCC(=O)Nc1cccc(Cl)c1` (centres undefined): the GI50 in the experiment with Malme-3M, with KM12, with SF-295, in the experiment with COLO 205, with SN12C and in the experiment on IGROV-1 was > 100 µM (inactive) in each case. Further, the GI50 in the experiment with LXFL 529, in the experiment on NCI-H460, in the experiment on UO-31, with A549, with OVCAR-8 and in the experiment with UACC-62 was > 100 µM (inactive) throughout. Moreover, the GI50 in the experiment with 786-0, in the experiment with HOP-62, with CCRF-CEM, with EKVX and in the experiment with OVCAR-4 was > 100 µM (inactive) throughout.
Turning to `CCN(CC)CCOC(c1ccccc1)c1ccccc1.CCOC(=O)Nc1ccc(S(=O)(=O)NCCCl)cc1.CCOC(=O)Nc1ccc(S(=O)(=O)NCCCl)cc1.Nc1ccc(C(=O)O)c(O)c1`, the GI50 in the experiment on Malme-3M, with KM12, in the experiment with SF-295, in the experiment with K562, in the experiment on COLO 205 and in the experiment on SN12C was > 100 µM (inactive) each time. Moreover, the GI50 in the experiment with IGROV-1, with LXFL 529, in the experiment with NCI-H460, with UO-31, in the experiment with A549 and with OVCAR-8 was > 100 µM (inactive) each time. In addition, the GI50 in the experiment on UACC-62, with 786-0, with HOP-62, in the experiment with CCRF-CEM, in the experiment on EKVX and in the experiment with OVCAR-4 was > 100 µM (inactive) throughout.
For the compound `O=C1C=CC2(C=C1)CCNC1=C2C(=O)c2ccccc2C1=O`, the GI50 in the experiment on Malme-3M, with KM12, in the experiment on SF-295, in the experiment with K562, with COLO 205 and in the experiment on SN12C was > 100 µM (inactive) throughout. Further, the GI50 in the experiment on IGROV-1, in the experiment with LXFL 529, in the experiment with NCI-H460, with UO-31, in the experiment with A549 and with OVCAR-8 was > 100 µM (inactive) in each case. Also, the GI50 in the experiment on UACC-62, in the experiment with 786-0, in the experiment on HOP-62, in the experiment with CCRF-CEM, in the experiment with EKVX and in the experiment with OVCAR-4 was > 100 µM (inactive) each time.
On to `Cc1oc2c(C)c3oc(=O)cc(C)c3cc2c1CNC(=O)[C@@H]1OCCOCCOCCOCCOCCOC1C(=O)O` (some centres undefined), for which the GI50 in the experiment on Malme-3M, in the experiment with KM12, with SF-295, with K562, in the experiment on COLO 205 and with SN12C was > 100 µM (inactive) throughout. Moreover, the GI50 in the experiment on IGROV-1 is > 100 µM (inactive); with LXFL 529, 8.15 µM (inactive); in the experiment with NCI-H460 it was > 100 µM (inactive); in the experiment with UO-31, > 100 µM (inactive); in the experiment with A549, > 100 µM (inactive); in the experiment on OVCAR-8, > 100 µM (inactive). The GI50 with UACC-62 was > 100 µM (inactive); in the experiment on 786-0, 21.2 µM (inactive); with HOP-62, > 100 µM (inactive); with CCRF-CEM, > 100 µM (inactive); in the experiment with EKVX, > 100 µM (inactive); with OVCAR-4 it was > 100 µM (inactive).
`c1ccc2c3c([nH]c2c1)[C@H]1C2CCCCN2CN1CC3` (some centres undefined): the GI50 with Malme-3M was 83.6 µM (inactive); in the experiment with SF-295, > 100 µM (inactive); with K562, > 100 µM (inactive); in the experiment on COLO 205 it was > 100 µM (inactive); in the experiment with SN12C it was > 100 µM (inactive); in the experiment on IGROV-1, > 100 µM (inactive). Moreover, the GI50 in the experiment on LXFL 529 was > 100 µM (inactive); in the experiment on NCI-H460 it was > 100 µM (inactive); with UO-31, > 100 µM (inactive); in the experiment with A549 it was > 100 µM (inactive); in the experiment with OVCAR-8, > 100 µM (inactive); in the experiment with UACC-62, 51.8 µM (inactive). Moreover, the GI50 in the experiment on 786-0, in the experiment with HOP-62, in the experiment with CCRF-CEM, with EKVX and in the experiment with OVCAR-4 was > 100 µM (inactive) in each case.
`CC1=NN(C(=O)c2ccc(Cl)cc2)C(=O)/C1=C/c1cccc(O)c1`: the GI50 in the experiment on Malme-3M, in the experiment on KM12, with SF-295, in the experiment with K562, in the experiment on COLO 205 and in the experiment on SN12C was > 100 µM (inactive) throughout. Further, the GI50 with IGROV-1, in the experiment with LXFL 529, in the experiment with NCI-H460, with UO-31, with A549 and with OVCAR-8 was > 100 µM (inactive) in each case. The GI50 with UACC-62, in the experiment with 786-0, in the experiment on HOP-62, in the experiment with CCRF-CEM, with EKVX and with OVCAR-4 was > 100 µM (inactive) throughout.
In the case of `COc1cc(CC2C(=O)OCC2[C@@H](OC(C)=O)c2ccc3c(c2)OCO3)c(Br)c(OC)c1OC` (some centres undefined), the GI50 was 37.9 µM (inactive) in the experiment on Malme-3M; 31.5 µM (inactive) in the experiment on KM12; 33.1 µM (inactive) in the experiment with SF-295; 36.8 µM (inactive) with COLO 205; > 100 µM (inactive) with SN12C; 80.2 µM (inactive) in the experiment on IGROV-1. For the same compound, the GI50 is 33.9 µM (inactive) with LXFL 529; 48.3 µM (inactive) in the experiment with NCI-H460; 53.3 µM (inactive) in the experiment on UO-31; 39.4 µM (inactive) in the experiment on A549; > 100 µM (inactive) in the experiment with OVCAR-8; 37.8 µM (inactive) with UACC-62. Moreover, the GI50 was > 100 µM (inactive) with 786-0; > 100 µM (inactive) with HOP-62; 44.7 µM (inactive) in the experiment on CCRF-CEM; > 100 µM (inactive) in the experiment on EKVX; 90.6 µM (inactive) with OVCAR-4.
Take `Cc1ccc(C(=O)O)cc1NC(=O)c1cc(/C=C/c2ccccc2)[nH]c(=S)n1`: the GI50 with Malme-3M is > 100 µM (inactive); with KM12 it was > 100 µM (inactive); in the experiment on SF-295, > 100 µM (inactive); in the experiment with K562 it was > 54.8 µM (inactive); in the experiment on COLO 205, > 65.8 µM (inactive); in the experiment on SN12C, > 100 µM (inactive). The GI50 with IGROV-1 is > 100 µM (inactive); with LXFL 529 it was > 84.5 µM (inactive); with NCI-H460, > 100 µM (inactive); in the experiment with UO-31, > 100 µM (inactive); in the experiment with A549 it was > 65.8 µM (inactive); in the experiment on OVCAR-8, > 100 µM (inactive). The GI50 in the experiment on UACC-62 is > 100 µM (inactive); in the experiment with 786-0 it was > 64.3 µM (inactive); in the experiment with HOP-62, > 100 µM (inactive); in the experiment on CCRF-CEM it was > 64.7 µM (inactive); in the experiment on EKVX, > 100 µM (inactive); with OVCAR-4, > 100 µM (inactive).

These data come from ChEMBL document CHEMBL1201862, “PubChem BioAssay data set” (2004).
